Measurements from patent US7915223B2, “Antimicrobial agents” (priority 2004, dated 2011).
Read-outs that look alike come from different tables or passages of the source. Bridge positions count the residues as written; N and C are the ends. Ends that are not written are not given here. Peptide text beside a SMILES is read from it.

How the values were obtained:
[1] = test system: human red blood cells (RBC); test: Hemolysis assay; assay type: cell-based; conditions: human RBC, 10% hematocrit, 1 hour at 37° C., 31 μM, 94 μM and 156 μM
Description: (§1) The polymer's membranolytic potential was determined against human red blood cells (RBC) in phosphate buffer solution (PBS).
(§2) Alternatively, a 10% hematocrit was used and hemolysis was determined after one hour incubation.

Hemolysis assay = assay type: cell-based, human; conditions: lytic concentration inducing 50% lysis of human red blood cells in PBS, read-out: LC50 (the source's name)
Description: as §1, §2

[2] = Hydrophobicity estimation by reversed-phase HPLC (percent acetonitrile at elution); assay type: physicochemical; conditions: percent of acetonitrile at which the polymer was eluted on reversed-phase C18 HPLC
Description: HPLC chromatograms were performed on C18 columns (Vydak, 250 mm×4.6 or 10 mm) using a linear gradient of acetonitrile in water (1% per minute), both solvents contained 0.1% trifluoroacetic acid. The purified polymers were subjected to mass spectrometry (ZQ Waters) to confirm their composition and stored as a lyophilized powder at −20° C. Prior to being tested, fresh solutions were prepared in water, mixed by vortex, solubilized by ultrasound, centrifuged and then diluted in the appropriate medium.
In order to estimate the hydrophobicity of each polymer, the polymer was eluted with a linear gradient of acetonitrile (1% per minute) on an HPLC reversed-phase C18 column, and the percent of acetonitrile at which the polymer was eluted was used for hydrophobicity estimation (see, “ACN (%)” in Table 3 below).

[3] = test system: microorganisms in the saliva of healthy human volunteers; conditions: fresh human saliva 1:1 with 100 μM agent, pH 5
Description: A solution of the saliva with no anti-bacterial agent served as a control. […] Each of the solutions was spread over a LA plate, and the plated saliva samples were incubated overnight at 37° C. without aeration. The colonies were enumerated and counted to determine the microbicidal effect of the drug. The values of viable colony forming units (CFU) were determined as described above.

Compound | hemolytic activity [1] | HC50 (Hemolysis assay; red blood cells (RBC)) [µM] | HC50 (Hemolysis assay) [µM] | ACN (%) [2] [%] | growth of saliva microorganisms (CFU per ml versus incubation time) [3]
CC[C@H](C)[C@H](NC(=O)[C@H](CCC(=O)O)NC(=O)[C@H](CCC(=O)O)NC(=O)[C@H](Cc1ccccc1)NC(=O)[C@H](CC(=O)O)NC(=O)CNC(=O)[C@H](CC(N)=O)NC(=O)CNC(=O)CNC(=O)CNC(=O)CNC(=O)[C@@H]1CCCN1C(=O)[C@H](CCCNC(=N)N)NC(=O)[C@@H]1CCCN1C(=O)[C@H](N)Cc1ccccc1)C(=O)N1CCC[C@H]1C(=O)N[C@@H](CCC(=O)O)C(=O)N[C@@H](CCC(=O)O)C(=O)N[C@@H](Cc1ccc(O)cc1)C(=O)N[C@@H](CC(C)C)C(=O)O [bivalirudin] | merely a “background level” activity |  |  |  | 
GIGKFLKKAKKFGKAFVKILKK-NH2 [MSI-78] | high degree of hemolysis | 45 |  |  | 
CC(C)C[C@H](NC(=O)CNC(=O)CNC(=O)[C@@H](N)CCCNC(=N)N)C(=O)N[C@H]1CSSC[C@@H](C(=O)N[C@H](C(=O)NCC(=O)N[C@@H](CCCNC(=N)N)C(N)=O)C(C)C)NC(=O)[C@H](C(C)C)NC(=O)[C@@H]2CSSC[C@H](NC(=O)[C@H](Cc3ccc(O)cc3)NC1=O)C(=O)N[C@@H](CCCNC(=N)N)C(=O)NCC(=O)N[C@@H](CCCNC(=N)N)C(=O)N[C@@H](Cc1ccccc1)C(=O)N2 [IB-367] (H-RGGLCYCRGRFCVCVGR-NH2; disulfide 5-14, 7-12) |  |  | 7 | 45 | inhibited but proliferation is resumed after 30 minutes
